Measured values published in PubChem BioAssay AID1259407 (Chemical Carcinogenesis Research Information System (CCRIS), 2018).
The source made the active and inactive calls. No rule for the calls is given here.

Test system: CCRIS mutagenicity, Ames/micronucleus/aberration tests
Assay: CCRIS mutagenicity studies
[1] = Test System: AMES SALMONELLA TYPHIMURIUM, Strain/Indicator: TA98, Metabolic Activation: RAT, LIVER, S-9, AROCLOR 1254, Method: STANDARD PLATE
[2] = Test System: AMES SALMONELLA TYPHIMURIUM, Strain/Indicator: TA1537, Metabolic Activation: NONE, Method: STANDARD PLATE
[3] = Test System: AMES SALMONELLA TYPHIMURIUM, Strain/Indicator: TA100, Metabolic Activation: NONE, Method: STANDARD PLATE
[4] = Test System: AMES SALMONELLA TYPHIMURIUM, Strain/Indicator: TA98, Metabolic Activation: NONE, Method: STANDARD PLATE
[5] = Test System: AMES SALMONELLA TYPHIMURIUM, Strain/Indicator: TA100, Metabolic Activation: RAT, LIVER, S-9, AROCLOR 1254, Method: STANDARD PLATE

c1cscn1
mutagenic call (Test System: AMES SALMONELLA TYPHIMURIUM, Strain/Indicator: TA98, Metabolic Activation: HAMSTER, LIVER, S-9, AROCLOR 1254, Method: STANDARD PLATE): inactive; negative | mutagenic call [1]: inactive; negative | mutagenic call (Test System: AMES SALMONELLA TYPHIMURIUM, Strain/Indicator: TA100, Metabolic Activation: HAMSTER, LIVER, S-9, AROCLOR 1254, Method: STANDARD PLATE): inactive; negative | mutagenic call (Test System: AMES SALMONELLA TYPHIMURIUM, Strain/Indicator: TA1535, Metabolic Activation: HAMSTER, LIVER, S-9, AROCLOR 1254, Method: STANDARD PLATE): inactive; negative | mutagenic call (Test System: AMES SALMONELLA TYPHIMURIUM, Strain/Indicator: TA1535, Metabolic Activation: NONE, Method: STANDARD PLATE): inactive; negative | mutagenic call (Test System: AMES SALMONELLA TYPHIMURIUM, Strain/Indicator: TA1535, Metabolic Activation: RAT, LIVER, S-9, AROCLOR 1254, Method: STANDARD PLATE): inactive; negative | mutagenic call (Test System: AMES SALMONELLA TYPHIMURIUM, Strain/Indicator: TA1537, Metabolic Activation: HAMSTER, LIVER, S-9, AROCLOR 1254, Method: STANDARD PLATE): inactive; negative | mutagenic call [2]: inactive; negative | mutagenic call (Test System: AMES SALMONELLA TYPHIMURIUM, Strain/Indicator: TA1537, Metabolic Activation: RAT, LIVER, S-9, AROCLOR 1254, Method: STANDARD PLATE): inactive; negative | mutagenic call (Test System: AMES SALMONELLA TYPHIMURIUM, Strain/Indicator: TA1538, Metabolic Activation: HAMSTER, LIVER, S-9, AROCLOR 1254, Method: STANDARD PLATE): inactive; negative | mutagenic call (Test System: AMES SALMONELLA TYPHIMURIUM, Strain/Indicator: TA1538, Metabolic Activation: NONE, Method: STANDARD PLATE): inactive; negative | mutagenic call (Test System: AMES SALMONELLA TYPHIMURIUM, Strain/Indicator: TA1538, Metabolic Activation: RAT, LIVER, S-9, AROCLOR 1254, Method: STANDARD PLATE): inactive; negative | mutagenic call (Test System: MOUSE LYMPHOMA, Strain/Indicator: L5178Y (TK+/TK-), Metabolic Activation: NONE, Method: SUSPENSION/PLATE): inactive; negative. reevaluation of results: negative | mutagenic call (Test System: MOUSE LYMPHOMA, Strain/Indicator: L5178Y (TK+/TK-), Metabolic Activation: RAT, LIVER, S-9, AROCLOR 1254, Method: SUSPENSION/PLATE): inactive; negative. reevaluation of results: negative

[CH3][Hg+]
mutagenic call (Test System: AMES SALMONELLA TYPHIMURIUM, Strain/Indicator: TA97, Metabolic Activation: HAMSTER, LIVER, S-9, AROCLOR 1254 (10%), Method: PREINCUBATION): inactive; negative | mutagenic call (Test System: AMES SALMONELLA TYPHIMURIUM, Strain/Indicator: TA97, Metabolic Activation: HAMSTER, LIVER, S-9, AROCLOR 1254 (30%), Method: PREINCUBATION): inactive; negative | mutagenic call (Test System: AMES SALMONELLA TYPHIMURIUM, Strain/Indicator: TA97, Metabolic Activation: NONE, Method: PREINCUBATION): inactive; negative | mutagenic call (Test System: AMES SALMONELLA TYPHIMURIUM, Strain/Indicator: TA97, Metabolic Activation: RAT, LIVER, S-9, AROCLOR 1254 (10%), Method: PREINCUBATION): inactive; negative | mutagenic call (Test System: AMES SALMONELLA TYPHIMURIUM, Strain/Indicator: TA97, Metabolic Activation: RAT, LIVER, S-9, AROCLOR 1254 (30%), Method: PREINCUBATION): inactive; negative | mutagenic call (Test System: AMES SALMONELLA TYPHIMURIUM, Strain/Indicator: TA98, Metabolic Activation: HAMSTER, LIVER, S-9, AROCLOR 1254 (10%), Method: PREINCUBATION): inactive; negative | mutagenic call (Test System: AMES SALMONELLA TYPHIMURIUM, Strain/Indicator: TA98, Metabolic Activation: HAMSTER, LIVER, S-9, AROCLOR 1254 (30%), Method: PREINCUBATION): inactive; negative | mutagenic call (Test System: AMES SALMONELLA TYPHIMURIUM, Strain/Indicator: TA98, Metabolic Activation: NONE, Method: PREINCUBATION): inactive; negative | mutagenic call (Test System: AMES SALMONELLA TYPHIMURIUM, Strain/Indicator: TA98, Metabolic Activation: RAT, LIVER, S-9, AROCLOR 1254 (10%), Method: PREINCUBATION): inactive; negative | mutagenic call (Test System: AMES SALMONELLA TYPHIMURIUM, Strain/Indicator: TA98, Metabolic Activation: RAT, LIVER, S-9, AROCLOR 1254 (30%), Method: PREINCUBATION): inactive; negative | mutagenic call (Test System: AMES SALMONELLA TYPHIMURIUM, Strain/Indicator: TA100, Metabolic Activation: HAMSTER, LIVER, S-9, AROCLOR 1254 (10%), Method: PREINCUBATION): inactive; negative | mutagenic call (Test System: AMES SALMONELLA TYPHIMURIUM, Strain/Indicator: TA100, Metabolic Activation: HAMSTER, LIVER, S-9, AROCLOR 1254 (30%), Method: PREINCUBATION): inactive; negative | mutagenic call (Test System: AMES SALMONELLA TYPHIMURIUM, Strain/Indicator: TA100, Metabolic Activation: NONE, Method: PREINCUBATION): inactive; negative | mutagenic call (Test System: AMES SALMONELLA TYPHIMURIUM, Strain/Indicator: TA100, Metabolic Activation: RAT, LIVER, S-9, AROCLOR 1254 (10%), Method: PREINCUBATION): inactive; negative | mutagenic call (Test System: AMES SALMONELLA TYPHIMURIUM, Strain/Indicator: TA100, Metabolic Activation: RAT, LIVER, S-9, AROCLOR 1254 (30%), Method: PREINCUBATION): inactive; negative | mutagenic call (Test System: AMES SALMONELLA TYPHIMURIUM, Strain/Indicator: TA1535, Metabolic Activation: HAMSTER, LIVER, S-9, AROCLOR 1254 (10%), Method: PREINCUBATION): inactive; negative | mutagenic call (Test System: AMES SALMONELLA TYPHIMURIUM, Strain/Indicator: TA1535, Metabolic Activation: HAMSTER, LIVER, S-9, AROCLOR 1254 (30%), Method: PREINCUBATION): inactive; negative | mutagenic call (Test System: AMES SALMONELLA TYPHIMURIUM, Strain/Indicator: TA1535, Metabolic Activation: NONE, Method: PREINCUBATION): inactive; negative | mutagenic call (Test System: AMES SALMONELLA TYPHIMURIUM, Strain/Indicator: TA1535, Metabolic Activation: RAT, LIVER, S-9, AROCLOR 1254 (10%), Method: PREINCUBATION): inactive; negative | mutagenic call (Test System: AMES SALMONELLA TYPHIMURIUM, Strain/Indicator: TA1535, Metabolic Activation: RAT, LIVER, S-9, AROCLOR 1254 (30%), Method: PREINCUBATION): inactive; negative | mutagenic call (Test System: AMES SALMONELLA TYPHIMURIUM, Strain/Indicator: TA1537, Metabolic Activation: HAMSTER, LIVER, S-9, AROCLOR 1254 (30%), Method: PREINCUBATION): inactive; negative | mutagenic call (Test System: AMES SALMONELLA TYPHIMURIUM, Strain/Indicator: TA1537, Metabolic Activation: NONE, Method: PREINCUBATION): inactive; negative | mutagenic call (Test System: AMES SALMONELLA TYPHIMURIUM, Strain/Indicator: TA1537, Metabolic Activation: RAT, LIVER, S-9, AROCLOR 1254 (30%), Method: PREINCUBATION): inactive; negative

CCC(=O)Nc1snc2ccc(C)cc12
mutagenic call [3]: inactive; negative | mutagenic call (Test System: AMES SALMONELLA TYPHIMURIUM, Strain/Indicator: TA100, Metabolic Activation: S-9, Method: STANDARD PLATE): inactive; negative | mutagenic call [2]: inactive; negative | mutagenic call (Test System: AMES SALMONELLA TYPHIMURIUM, Strain/Indicator: TA1537, Metabolic Activation: S-9, Method: STANDARD PLATE): inactive; negative

c1ccc(C(c2ccccc2)c2ccccc2)cc1
mutagenic call (Test System: AMES SALMONELLA TYPHIMURIUM, Strain/Indicator: TA97, Metabolic Activation: NONE, Method: STANDARD PLATE): inactive; negative | mutagenic call (Test System: AMES SALMONELLA TYPHIMURIUM, Strain/Indicator: TA97, Metabolic Activation: RAT, LIVER, S-9, AROCLOR 1254, Method: STANDARD PLATE): inactive; negative | mutagenic call [4]: inactive; negative | mutagenic call [1]: inactive; negative | mutagenic call [3]: inactive; negative | mutagenic call [5]: inactive; negative | mutagenic call (Test System: AMES SALMONELLA TYPHIMURIUM, Strain/Indicator: TA104, Metabolic Activation: NONE, Method: STANDARD PLATE): inactive; negative | mutagenic call (Test System: AMES SALMONELLA TYPHIMURIUM, Strain/Indicator: TA104, Metabolic Activation: RAT, LIVER, S-9, AROCLOR 1254, Method: STANDARD PLATE): inactive; negative

c1ccc2cc3c(ccc4ccncc43)cc2c1
mutagenic call [4]: inactive; negative | mutagenic call [1]: active; positive | mutagenic call [5]: active; positive

OCc1ccc2c(CO)c3ccc4ccccc4c3nc2c1
mutagenic call [5]: inactive; negative

Cc1ccc(Cl)cc1N
mutagenic call (End Point: IN VITRO CHROMOSOMAL ABERRATIONS, Test System: CHINESE HAMSTER OVARY CELLS, Metabolic Activation: NONE): inactive; negative | mutagenic call (End Point: IN VITRO CHROMOSOMAL ABERRATIONS, Test System: CHINESE HAMSTER OVARY CELLS, Metabolic Activation: RAT, LIVER, S-9, AROCLOR 1254): inactive; negative | mutagenic call (Test System: UDS RODENT HEPATOCYTES, Strain/Indicator: THY INCORP (NON-S-PHASE), Metabolic Activation: NONE, Method: AUTORADIOGRAPHY): inactive; negative
